Assay results from US9409884B2 (Rigel Pharmaceuticals, Inc., priority 2012, dated 2016).
Counter-ions that a name gives are not always drawn.

Biological target: AMPK
Assay: AMPK activation, enzyme-linked immunosorbent assay
Format: biochemical
Conditions: Table 8, compounds of Table 1
In short: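 Read-out: ELISA, used to detect compound-driven activation of AMPK.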

Compared with `O=C(NC1CCNCC1)c1cc2ccc(OC3CCN(c4ccc(OC(F)(F)F)cc4)CC3)cc2o1` [Compound 1-83, N-(piperidin-4-yl)-6-(1-(4-(trifluoromethoxy)phenyl)piperidin-4-yloxy)benzofuran-2-carboxamide], `O=C(NC1CCNCC1)c1cc2ccc(OC3CCN(c4ccc(C(F)(F)F)cc4)CC3)cc2o1` [Compound 1-84, N-(piperidin-4-yl)-6-(1-(4-(trifluoromethyl)phenyl)piperidin-4-yloxy)benzofuran-2-carboxamide] is higher in EC50: 100 to 500 nM for the first, 5000 to 10000 nM for the second. The first is the more potent here.

First: CC(C)(C)OC(=O)N1CCC(NC(=O)c2cc3cc(OC4CCN(c5ccc(C(F)(F)F)cc5)CC4)ccc3o2)CC1 [Compound 1-85, tert-butyl 4-(5-(1-(4-(trifluoromethyl)phenyl)piperidin-4-yloxy)benzofuran-2-carboxamido) piperidine-1-carboxylate]
Second: CN(C(=O)c1cc2cc(OC3CCN(c4ccc(C(F)(F)F)cc4)CC3)ccc2o1)C1CCN(C(=O)OC(C)(C)C)CC1 [Compound 1-102, tert-butyl 4-(N-methyl-5-(1-(4-(trifluoromethyl)phenyl)piperidin-4-yloxy)benzofuran-2-carboxamido) piperidine-1-carboxylate]
The EC50 of the first is lower: 500 to 1000 nM for the first, 1000 to 5000 nM for the second.

First: O=C(NC1CCNCC1)c1cc2cc(OC3CCN(c4ccc(C(F)(F)F)cc4)CC3)ccc2o1 [Compound 1-86, N-(piperidin-4-yl)-5-(1-(4-(trifluoromethyl)phenyl)piperidin-4-yloxy)benzofuran-2-carboxamide]
Second: CN(C(=O)c1cc2cc(OC3CCN(c4ccc(C(F)(F)F)cc4)CC3)ccc2o1)C1CCNCC1 [Compound 1-103, N-methyl-N-(piperidin-4-yl)-5-(1-(4-(trifluoromethyl)phenyl)piperidin-4-yloxy)benzofuran-2-carboxamide]
The EC50 of the first is higher: greater than 10000 nM for the first, 1000 to 5000 nM for the second.

`O=C(NC1CCN(Cc2ccncc2)CC1)c1cc2ccc(OC3CCN(c4ccc(C(F)(F)F)cc4)CC3)cc2o1` [Compound 1-87, N-(1-(pyridin-4-ylmethyl)piperidin-4-yl)-6-(1-(4-(trifluoromethyl)phenyl)piperidin-4-yloxy)benzofuran-2-carboxamide] and `O=C(NC1CCN(Cc2ccncc2)CC1)c1cc2ccc(OC3CCN(c4ccc(OC(F)(F)F)cc4)CC3)cc2o1` [Compound 1-88, N-(1-(pyridin-4-ylmethyl)piperidin-4-yl)-6-(1-(4-(trifluoromethoxy)phenyl)piperidin-4-yloxy)benzofuran-2-carboxamide] cannot be ordered by EC50: less than 100 nM for the first, less than 100 nM for the second.

`N#Cc1ccc(CN2CCC(NC(=O)c3cc4ccc(OC5CCN(c6ccc(OC(F)(F)F)cc6)CC5)cc4o3)CC2)cc1` [Compound 1-89, N-(1-(4-cyanobenzyl)piperidin-4-yl)-6-(1-(4-(trifluoromethoxy)phenyl)piperidin-4-yloxy)benzofuran-2-carboxamide] and `N#Cc1ccc(CN2CCC(NC(=O)c3cc4ccc(OC5CCN(c6ccc(C(F)(F)F)cc6)CC5)cc4o3)CC2)cc1` [Compound 1-90, N-(1-(4-cyanobenzyl)piperidin-4-yl)-6-(1-(4-(trifluoromethyl)phenyl)piperidin-4-yloxy)benzofuran-2-carboxamide] cannot be ordered by EC50: less than 100 nM for the first, less than 100 nM for the second.

First: O=C(NC1CCN(Cc2ccc(F)cc2)CC1)c1cc2ccc(OC3CCN(c4ccc(C(F)(F)F)cc4)CC3)cc2o1 [Compound 1-91, N-(1-(4-fluorobenzyl)piperidin-4-yl)-6-(1-(4-(trifluoromethyl)phenyl)piperidin-4-yloxy)benzofuran-2-carboxamide]
Second: O=C(NC1CCN(Cc2ccc(F)cc2)CC1)c1cc2ccc(OC3CCN(c4ccc(OC(F)(F)F)cc4)CC3)cc2o1 [Compound 1-94, N-(1-(4-fluorobenzyl)piperidin-4-yl)-6-(1-(4-(trifluoromethoxy)phenyl)piperidin-4-yloxy)benzofuran-2-carboxamide]
The EC50 of the first is higher: greater than 10000 nM for the first, less than 100 nM for the second. The second is the more potent here.

First: O=C(NC1CCN(Cc2ccccn2)CC1)c1cc2ccc(OC3CCN(c4ccc(OC(F)(F)F)cc4)CC3)cc2o1 [Compound 1-92, N-(1-(pyridin-2-ylmethyl)piperidin-4-yl)-6-(1-(4-(trifluoromethoxy)phenyl)piperidin-4-yloxy)benzofuran-2-carboxamide]
Second: O=C(NC1CCN(Cc2ccccn2)CC1)c1cc2ccc(OC3CCN(c4ccc(C(F)(F)F)cc4)CC3)cc2o1 [Compound 1-93, N-(1-(pyridin-2-ylmethyl)piperidin-4-yl)-6-(1-(4-(trifluoromethyl)phenyl)piperidin-4-yloxy)benzofuran-2-carboxamide]
The EC50 of the first is higher: 500 to 1000 nM for the first, 100 to 500 nM for the second. The second is the more potent here.

`O=C(NC1CCN(Cc2cccnc2)CC1)c1cc2ccc(OC3CCN(c4ccc(OC(F)(F)F)cc4)CC3)cc2o1` [Compound 1-95, N-(1-(pyridin-3-ylmethyl)piperidin-4-yl)-6-(1-(4-(trifluoromethoxy)phenyl)piperidin-4-yloxy)benzofuran-2-carboxamide] and `O=C(NC1CCN(Cc2cccnc2)CC1)c1cc2ccc(OC3CCN(c4ccc(C(F)(F)F)cc4)CC3)cc2o1` [Compound 1-96, N-(1-(pyridin-3-ylmethyl)piperidin-4-yl)-6-(1-(4-(trifluoromethyl)phenyl)piperidin-4-yloxy)benzofuran-2-carboxamide] cannot be ordered by EC50: less than 100 nM for the first, less than 100 nM for the second.

`N#Cc1ccccc1CN1CCC(NC(=O)c2cc3ccc(OC4CCN(c5ccc(OC(F)(F)F)cc5)CC4)cc3o2)CC1` [Compound 1-97, N-(1-(2-cyanobenzyl)piperidin-4-yl)-6-(1-(4-(trifluoromethoxy)phenyl)piperidin-4-yloxy)benzofuran-2-carboxamide] and `N#Cc1ccccc1CN1CCC(NC(=O)c2cc3ccc(OC4CCN(c5ccc(C(F)(F)F)cc5)CC4)cc3o2)CC1` [Compound 1-98, N-(1-(2-cyanobenzyl)piperidin-4-yl)-6-(1-(4-(trifluoromethyl)phenyl)piperidin-4-yloxy)benzofuran-2-carboxamide] cannot be ordered by EC50: less than 100 nM for the first, less than 100 nM for the second.

`O=C(NC1CCN(Cc2ccc(C(F)(F)F)cc2)CC1)c1cc2ccc(OC3CCN(c4ccc(C(F)(F)F)cc4)CC3)cc2o1` [Compound 1-99, N-(1-(4-(trifluoromethyl)benzyl)piperidin-4-yl)-6-(1-(4-(trifluoromethyl)phenyl)piperidin-4-yloxy)benzofuran-2-carboxamide] and `O=C(NC1CCN(Cc2ccc(C(F)(F)F)cc2)CC1)c1cc2cc(OC3CCN(c4ccc(C(F)(F)F)cc4)CC3)ccc2o1` [Compound 1-100, N-(1-(4-(trifluoromethyl)benzyl)piperidin-4-yl)-5-(1-(4-(trifluoromethyl)phenyl)piperidin-4-yloxy)benzofuran-2-carboxamide] cannot be ordered by EC50: less than 100 nM for the first, less than 100 nM for the second.

`O=C(NC1CCN(Cc2cccnc2)CC1)c1cc2cc(OC3CCN(c4ccc(C(F)(F)F)cc4)CC3)ccc2o1` [Compound 1-101, N-(1-(pyridin-3-ylmethyl)piperidin-4-yl)-5-(1-(4-(trifluoromethyl)phenyl)piperidin-4-yloxy)benzofuran-2-carboxamide] and `CN(C(=O)c1cc2cc(OC3CCN(c4ccc(C(F)(F)F)cc4)CC3)ccc2o1)C1CCN(Cc2cccnc2)CC1` [Compound 1-109, N-methyl-N-(1-(pyridin-3-ylmethyl)piperidin-4-yl)-5-(1-(4-(trifluoromethyl)phenyl)piperidin-4-yloxy)benzofuran-2-carboxamide] cannot be ordered by EC50: less than 100 nM for the first, less than 100 nM for the second.

First: CN(C(=O)c1cc2cc(OC3CCN(c4ccc(C(F)(F)F)cc4)CC3)ccc2o1)C1CCN(Cc2ccncc2)CC1 [Compound 1-104, N-methyl-N-(1-(pyridin-4-ylmethyl)piperidin-4-yl)-5-(1-(4-(trifluoromethyl)phenyl)piperidin-4-yloxy)benzofuran-2-carboxamide]
Second: CN(C(=O)c1cc2cc(OC3CCN(c4ccc(C(F)(F)F)cc4)CC3)ccc2o1)C1CCN(Cc2ccc(C#N)cc2)CC1 [Compound 1-107, N-(1-(4-cyanobenzyl)piperidin-4-yl)-N-methyl-5-(1-(4-(trifluoromethyl)phenyl)piperidin-4-yloxy)benzofuran-2-carboxamide]
The EC50 of the first is higher: 100 to 500 nM for the first, less than 100 nM for the second.

`O=C(NC1CCN(S(=O)(=O)c2cccnc2)CC1)c1cc2ccc(OC3CCN(c4ccc(C(F)(F)F)cc4)CC3)cc2o1` [Compound 1-106, N-(1-(pyridin-3-ylsulfonyl)piperidin-4-yl)-6-(1-(4-(trifluoromethyl)phenyl)piperidin-4-yloxy)benzofuran-2-carboxamide] and `O=C(NC1CCN(S(=O)(=O)c2cccnc2)CC1)c1cc2ccc(OC3CCN(c4ccc(OC(F)(F)F)cc4)CC3)cc2o1` [Compound 1-108, N-(1-(pyridin-3-ylsulfonyl)piperidin-4-yl)-6-(1-(4-(trifluoromethoxy)phenyl)piperidin-4-yloxy)benzofuran-2-carboxamide] fall in the same range of EC50: 100 to 500 nM for the first, 100 to 500 nM for the second.

Compared with `CN(C(=O)c1cc2cc(OC3CCN(c4ccc(C(F)(F)F)cc4)CC3)ccc2o1)C1CCN(Cc2cccc(C#N)c2)CC1` [Compound 1-110, N-(1-(3-cyanobenzyl)piperidin-4-yl)-N-methyl-5-(1-(4-(trifluoromethyl)phenyl)piperidin-4-yloxy)benzofuran-2-carboxamide], `CN(C(=O)c1cc2cc(OC3CCN(c4ccc(C(F)(F)F)cc4)CC3)ccc2o1)C1CCN(Cc2ccccc2C#N)CC1` [Compound 1-111, N-(1-(2-cyanobenzyl)piperidin-4-yl)-N-methyl-5-(1-(4-(trifluoromethyl)phenyl)piperidin-4-yloxy)benzofuran-2-carboxamide] is higher in EC50: less than 100 nM for the first, 100 to 500 nM for the second. The first is the more potent here.

First: O=C(NC1CCN(C(=O)c2ccncc2)CC1)c1cc2ccc(OC3CCN(c4ccc(C(F)(F)F)cc4)CC3)cc2o1 [Compound 1-112, N-(1-isonicotinoylpiperidin-4-yl)-6-(1-(4-(trifluoromethyl)phenyl)piperidin-4-yloxy)benzofuran-2-carboxamide]
Second: CC(C)(C)OC(=O)N1CCC(NC(=O)c2cc3cc(OC4CCN(Cc5ccc(C#N)cc5)CC4)ccc3o2)CC1 [Compound 1-113, tert-butyl 4-(5-(1-(4-cyanobenzyl)piperidin-4-yloxy)benzofuran-2-carboxamido) piperidine-1-carboxylate]
The EC50 of the first is lower: less than 100 nM for the first, 100 to 500 nM for the second. The first is the more potent here.

Same assay, conditions: Table 8, compounds of Table 1; formate salt

`O=C(NC1CCN(Cc2ccncc2)CC1)c1cc2cc(OC3CCN(c4ccc(C(F)(F)F)cc4)CC3)ccc2o1` [Compound 1-105, N-(1-(pyridin-4-ylmethyl)piperidin-4-yl)-5-(1-(4-(trifluoromethyl)phenyl)piperidin-4-yloxy)benzofuran-2-carboxamide, formate salt] was tested, and the EC50 was less than 100 nM.
